Experimental data as given in patent US20050282814A1, “Vasculostatic agents and methods of use thereof” (TargeGen, Inc., priority 2002, published 2005).

How the values were obtained:
[1] = test system: VEGF-induced Akt kinase phosphorylation; test: VEGF-induced Akt phosphorylation in lung, Western blot; assay type: in vivo, Sprague Dawley rats
Experimental: The ability of compounds to impact PI3K activity in vivo was assessed by examining compound influence on vascular endothelial growth factor (VEGF)-induced Akt kinase phosphorylation (VEGF stimulation being an inducer of PI3K activity, and Akt kinase being a direct target of PI3K). Sprague Dawley rats were first injected intravenously (iv) with either vehicle or test compound at 5 mgfkg, and then 30, 60 or 120 min later injected iv with VEGF. Five minutes later, lungs were harvested and used to generate tissue lysates, which were then probed for phosphorylated Akt using Western blot technology; non-phosphorylated Akt was also probed in the same blots as a loading control. In other studies, test compounds was dosed at either 0.5 or 5 mg/kg, and VEGF delivered 60 min later, in order to assess the dose-response relationship of a compound's activities.

[2] = biological target: T1, human p120γ subunit of PI3K (Homo sapiens, UniProt P48736); test: PI3K p120γ enzymatic activity at two concentrations (Upstate Group); assay type: biochemical; settings: 100% = no inhibition, 0% = complete inhibition
T1 construct: Upstate Group, Charlottesville, Va; (ran the assay under contract)
T1 sequence (P48736 whole entry): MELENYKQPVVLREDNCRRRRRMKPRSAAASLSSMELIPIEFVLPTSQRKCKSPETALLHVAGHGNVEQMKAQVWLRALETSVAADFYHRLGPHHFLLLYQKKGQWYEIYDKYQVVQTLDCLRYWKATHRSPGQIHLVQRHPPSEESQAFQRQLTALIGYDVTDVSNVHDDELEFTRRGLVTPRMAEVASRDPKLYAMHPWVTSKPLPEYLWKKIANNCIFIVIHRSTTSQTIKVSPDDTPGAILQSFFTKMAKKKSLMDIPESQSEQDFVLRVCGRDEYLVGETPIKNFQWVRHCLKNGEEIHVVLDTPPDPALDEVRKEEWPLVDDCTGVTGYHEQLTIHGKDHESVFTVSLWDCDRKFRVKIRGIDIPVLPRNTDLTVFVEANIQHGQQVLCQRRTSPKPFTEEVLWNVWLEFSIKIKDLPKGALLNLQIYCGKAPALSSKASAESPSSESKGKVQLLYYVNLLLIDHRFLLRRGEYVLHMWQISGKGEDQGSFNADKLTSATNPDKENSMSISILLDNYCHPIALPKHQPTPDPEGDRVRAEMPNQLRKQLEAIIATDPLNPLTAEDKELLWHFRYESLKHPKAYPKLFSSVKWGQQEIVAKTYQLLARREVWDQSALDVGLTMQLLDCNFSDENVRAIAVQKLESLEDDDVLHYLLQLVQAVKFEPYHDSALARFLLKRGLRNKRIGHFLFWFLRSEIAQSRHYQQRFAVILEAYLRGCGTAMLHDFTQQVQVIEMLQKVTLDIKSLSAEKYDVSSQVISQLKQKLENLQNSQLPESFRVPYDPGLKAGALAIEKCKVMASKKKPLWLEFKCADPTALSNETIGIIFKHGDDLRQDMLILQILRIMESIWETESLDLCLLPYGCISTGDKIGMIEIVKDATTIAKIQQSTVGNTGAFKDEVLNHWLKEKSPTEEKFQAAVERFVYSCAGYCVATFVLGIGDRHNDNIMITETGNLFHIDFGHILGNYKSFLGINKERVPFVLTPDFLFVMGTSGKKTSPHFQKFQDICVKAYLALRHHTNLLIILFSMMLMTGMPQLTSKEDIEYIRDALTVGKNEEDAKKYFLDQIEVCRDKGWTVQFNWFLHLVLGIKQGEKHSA
Experimental: The ability of compounds to inhibit the activity of PI3K kinase was determined using biochemical assays. In a first assay, compounds were tested at two concentrations (0.5 and 5 μM) for their ability to inhibit enzymatic activity of the human p120γ subunit of PI3K (the assay being performed under contract by Upstate Group, Charlottesville, Va.).

[3] = test system: VEGF-induced edema; test: Miles assay, VEGF-induced edema; assay type: in vivo, Sprague-Dawley rats; settings: general statement in description
Experimental: A rodent model of vascular edema, the Miles assay, was used to screen compounds for their ability to inhibit VEGF-induced edema.
Sprague-Dawley rats were first injected IV with vehicle alone or test agent, followed by IV injection of Evans blue dye, followed by intradermal injections of saline and VEGF (200 ng/injection site) along both shaved flanks. After 45 min, intradermal injection sites were photographed and then scored by a blinded observer for extravasation of Evans blue dye into the dermis (dermal bluing) according to a 4 point scoring system (3=maximal bluing, ≧75% of response in vehicle-treated animals; 2=medium bluing, >25% but <75% of vehicle-treated animals; 1=minimal bluing, ≦25% of vehicle-treated animals; 0=bluing equivalent to saline injection sites on same animal). Individual scores for 4 injection sites (from 2 separate animals) were summed and are shown as a scale of 0-12, with a lower score indicating the greater anti-edema activity; note that all vehicle-treated groups score a value of 12, based on the scoring system outlined above.

[4] = test system: acute myocardial infarct; test: Rat acute myocardial infarct model (60 min LAD occlusion, reperfusion); assay type: in vivo, Sprague-Dawley rats; settings: rat
Experimental: A rodent model of acute myocardial infarct, in which the proximal left anterior descending coronary artery (LAD) is occluded for 60 min followed by reperfusion, was used to determine whether test agents reduced infarct size at 24 hours.
Myocardial infarcts were created in Sprague-Dawley rats (200-300 g body weight) by a 60 min occlusion of the LAD followed by LAD reperfusion. At 90 min post-reperfusion, either vehicle alone or test agents were injected IV. At 24 hr post-treatment, the ischemic zone (area at-risk, AAR) was delineated by re-ligation of the LAD followed by IV injection of alkali blue dye, after which hearts were sectioned along the short axis and stained using triphenyltetrazolium chloride to delineate viable from infarcted myocardium. Photographic images were then analyzed using morphometric software to calculate infarct area as a percent of the at-risk area.
The following studies were performed as described above, except that the timing of 3-[2,4-diamino-6-(3-hydroxyphenyl)pteridin-7-yl] phenol dihydrochloride salt administration (at 0.1 mg/kg) was varied. In one group, 3-[2,4-diamino-6-(3-hydroxyphenyl)pteridin-7-yl] phenol dihydrochloride salt was administered at both 60 and 240 min post-occlusion.
In a porcine MI model (90 min of LAD occlusion followed by complete reperfusion), a single 0.3 mg/kg IV bolus delivered 30 min post-reperfusion reduced infarct size by […] vs. controls (40% vs. 56%, N=12-13, P=0.03).

[5] = test system: PAF-induced inflammatory edema; test: PAF-induced paw inflammatory edema; assay type: in vivo, Sprague Dawley rats; settings: 5 mg/kg iv 30 min before PAF; 3 hours
Experimental: (§1) In order to determine the influence of compounds on the development of inflammation, Sprague Dawley rats were first injected intravenously with either vehicle or test compound at 5 mg/kg, and then 30 min later either PBS (as a control), dextran or platelet activating factor (PAF) was injected into the plantar surface of the hindlimbs, dextran and PAF being known to induce localized inflammatory responses marked by edema. Three hours later, paw dimensions were measured using a caliper and paw volumes calculated; data are shown as the increase in paw volume (mm^3) as compared to controls (paws injected with PBS).

[6] = test system: dextran-induced inflammatory edema; test: Dextran-induced paw inflammatory edema; assay type: in vivo, Sprague Dawley rats; settings: 5 mg/kg iv 30 min before dextran; 3 hours
Experimental: as §1

[7] = test system: B 16 melanoma cells; test: B16 melanoma lung metastases, effect on IL-2 anti-tumor activity; assay type: in vivo, C57 mice; settings: 100,000 U IL-2 and/or compound I.P. every 8 hours for 5 days; compound D 1 mg/kg range, compound E 0.1 mg/kg range
Experimental: Invention compound concentrations are listed in parenthesis in mg/kg while IL-2 concentration is given in parenthesis kilounits.
Syngeneic B 16 melanoma cells were injected I.V. in order to establish lung metastases in C57 mice. Beginning 10 days after cells were injected, 100,000 U of IL-2 and/or indicated invention compounds were given I.P. every 8 hours for 5 days. Animals were sacrificed at day 18, lungs were collected and scored using image analysis software. N=5/group, p<0.02. […] Invention compound concentrations are listed in parenthesis in mg/kg while IL-2 concentration is given in parenthesis kilounits.

[8] = test system: CTLL2; test: IL-2 dependent T-cell proliferation, XTT assay; assay type: cell-based, mouse; settings: 96 hours, 50 pg human recombinant IL-2; compound E: in the therapeutic range (<1 μM)
Experimental: An IL-2 dependent […] T cell line, CTLL2, was used to evaluate IL-2 dependent proliferation over 96 hours in the presence of 50 pg of human recombinant IL-2 (R&D Systems) and the indicated compounds using the XTT assay.

[9] = test system: ARDS-induced edema; test: Oleic acid induced ARDS lung edema, wet/dry weight; assay type: in vivo, NIH Swiss mice; settings: 1.5 mg/kg oleic acid i.p., 4 hours; compound in the 0.5 mg/kg range
Experimental: FIG. 12 illustrates the effects of invention compounds for their capacity to inhibit edema associated with Acute Respiratory Distress Syndrome (ARDS). NIH Swiss mice were given an intraperitoneal injection of 1.5 mg/kg Oleic Acid of (in this example formulated in saline) and/or invention compounds.
NIH Swiss mice were given an intraperitoneal injection of 1.5 mg/kg Oleic Acid of (in this example formulated in saline) and/or invention compounds.

Compound	Inhibition of VEGF-induced Akt phosphorylation, time course ([1]; 5 mg/kg iv, VEGF 30, 60 or 120 min later, lung lysates)	Inhibition of VEGF-induced Akt phosphorylation, dose-response ([1]; 0.5 or 5 mg/kg iv, VEGF 60 min later, lung lysates)	blockade of Akt phosphorylation following VEGF delivery ([1]; general statement in description)	remaining activity at 0.5 µM ([2]; 0.5 μM, read-out: Percent Control Value at 0.5 μM) [%]	remaining activity at 5 µM ([2]; 5 μM, read-out: Percent Control Value at 5 μM) [%]	inhibition of edema formation in VEGF-treated animals [3]	infarct area as percentage of ischemic territory (mean±SD) ([4]; 0.3 mg/kg IV bolus 60 min into reperfusion, 24 hr, vehicle 62%±7) [%]	infarct reduction with varied dosing time ([4]; dosing immediately at reperfusion or out to 3 hr later)	PAF-induced increase in paw volume [5]	dextran-induced increase in paw volume [6]	impact on the anti-tumor activity of IL-2 [7]	impact on IL-2 induced T-cell proliferation [8]	reduction of ARDS-induced edema [9] [%]
Nc1nc(N)c2nc(-c3cccc(O)c3)c(-c3cccc(O)c3)nc2n1 [6,7-bis-(3-hydroxyphenyl)-pteridine-2,4-diamine]	Inhibition of VEGF-induced Akt phosphorylation was seen at all time-points examined	at all 6,7-bis-(3-hydroxyphenyl)-pteridine-2,4-diamine doses examined	blockade of Akt phosphorylation	47	5	inhibit edema formation in VEGF-treated animals	35	Equivalent infarct reductions	blocked these responses	blocked these responses	–	–	–
O=C(O)c1ccccc1C(=O)Nc1ccccc1-c1cc2ccccc2[nH]1 [compound D]	–	–	–	–	–	–	–	–	–	–	no significant impact	no significant impact	–
Nc1nc(N)c2nc(-c3cccc(O)c3)c(-c3cccc(O)c3)nc2n1.O=S(=O)(O)O [compound E]	–	–	–	–	–	–	–	–	–	–	no significant impact	no significant impact	> 50
